pEC50: −log10 of the molar value. Activity calls are given as the source filed them. No rule for the calls is given here.
system: UPR adaptive arm reporter cells, luciferase luminescence; assay: adaptive unfolded protein response reporter activation – cell-based, luciferase luminescence, dose response (AID 489032)

SMILES | EC50 | pEC50
CN(C)CCOc1ccc(-c2c(-c3ccccc3)sc3ccccc23)cc1 | > 80 µM (inactive) | –
COc1cc(C(=O)Nc2nc(-c3ccc(Cl)cc3)c(C)s2)ccc1OCC(=O)Nc1ccc(F)cc1 | > 80 µM (inactive) | –
C=CCN=C1S/C(=C/c2cccc([N+](=O)[O-])c2)C(=O)N1CC=C | > 80 µM (inactive) | –
Cc1c(C(=O)Nc2nccs2)oc2ccc(Br)cc12 | > 80 µM (inactive) | –
Cc1ccc(Cc2cnc(NC(=O)/C(C#N)=C/c3ccc(-c4ccc([N+](=O)[O-])cc4)o3)s2)cc1 | – | 5.01
COc1ccc2c(c1)NC(c1cc(Cl)cc(Cl)c1O)c1cccn1-2 (stereo not drawn) | 33.3 µM (inactive) | –
CCOc1cc(/C=N\Nc2ccc([N+](=O)[O-])cc2)ccc1OCC(=O)Nc1ccc(C)c(C)c1 | 43.2 µM (inactive) | –
O=C(Cn1c2ccccc2c(=O)c2cc([N+](=O)[O-])ccc21)Nc1ccccc1Cl | > 80 µM (inactive) | –
O=C(NCC1CCCO1)c1nn2c(C(F)(F)F)cc(-c3cc(Br)cs3)nc2c1Br (stereo not drawn) | > 80 µM (inactive) | –
Cc1cc(-n2c(SCC(=O)Nc3ccc(F)c(F)c3)nc3n[nH]c(C)c3c2=N)ccc1Cl | > 80 µM (inactive) | –
C=CCN1C(=O)/C(=C2/Sc3ccc(OC)cc3N2C)SC1=Nc1cccc(O)c1 | > 80 µM (inactive) | –
Cc1cccn2c(=O)c3cc(C(=O)NC4CCCCCC4)sc3nc12 | > 80 µM (inactive) | –
O=C(Oc1ccc(F)cc1C(=O)/C=C/c1cccs1)c1cccc([N+](=O)[O-])c1 | 51.3 µM (inactive) | –
Cc1ccc(Cn2c(=O)n(-c3ccccc3)c(=O)c3ccc(C(=O)NCc4ccco4)cc32)cc1 | > 80 µM (inactive) | –
CCCNC(=O)/C(C#N)=C1\N=C(NC(=O)c2cccs2)c2ccccc21 | > 80 µM (inactive) | –
CC(=O)Oc1ccc(-c2ccc(C(=O)OCC(=O)N(C)CC(=O)Nc3ccccc3Cl)cc2)cc1 | – | 5.61
Cc1ccc(-c2cc(C(F)F)n3ncc(C(=O)N4CCc5ccccc54)c3n2)cc1 | 27.2 µM (inactive) | –
CCCCN1C(=O)C(=O)c2cc(Cl)ccc21 | 52.4 µM (inactive) | –
CCN(CC)c1ccc(/C=C/[N+](=O)[O-])cc1 | – | 4.71
COc1ccc(N2CCN(Cc3nc(N)nc(Nc4ccc(C)c(Cl)c4)n3)CC2)cc1 | – | 4.74
CCCCCCCCCCn1c2c(c(=N)c3c1CCC3)CCC2 | 24.9 µM (inactive) | –
C#CCn1c(=NC(=O)c2ccc(S(=O)(=O)N3CCc4ccccc4C3)cc2)sc2cc(S(N)(=O)=O)ccc21 | > 80 µM (inactive) | –

SMILES | EC50 | pEC50
COc1ccc(C(CCNCc2ccc(F)cc2)c2ccc(F)cc2)cc1 (stereo not drawn) | – | 5.04
C=CCOc1ccc2cccc(/C=N/NC(=O)c3cc4cc([N+](=O)[O-])ccc4s3)c2c1 | 43.5 µM (inactive) | –
CN1Cc2c(N3CCOCC3)nc3sc(C(=O)c4ccc(Br)cc4)c(N)c3c2CC1(C)C | > 80 µM (inactive) | –
O=C(NN1C(=O)/C(=C/c2ccc(O)c(O)c2)SC1=S)c1ccccc1 | > 80 µM (inactive) | –
Oc1ccc(CN2CCC(Cc3ccccc3)CC2)c2cccnc12 | > 80 µM (inactive) | –
Cc1ccc(C(C)C)c(OCc2ccc(C(=O)N/N=C/c3ccc(O)c(O)c3)cc2)c1 | – | 5.08
COc1ccc2cc1Oc1ccc(cc1)CC1c3c(cc(OC)c4c3Oc3cc5c(cc3O4)CCNC5C2)CCN1C (stereo not drawn) | > 80 µM (inactive) | –
N#CCC(=O)N/N=C/c1cn(Cc2ccc3ccccc3c2)c2ccccc12 | 71 µM (inactive) | –
COc1cc([N+](=O)[O-])cc(/C=N/NC(=O)c2ccc(NC(=O)c3ccc(C)cc3)cc2)c1O | > 80 µM (inactive) | –
O=C(Nc1ccc2nc3n(c(=O)c2c1)CCCCC3)c1ccccc1Cl | > 80 µM (inactive) | –
COc1ccc2oc(-c3ccc(C)c(NC(=O)c4ccc(N5CCOCC5)c([N+](=O)[O-])c4)c3)nc2c1 | > 80 µM (inactive) | –
Cc1ccc2oc(C(Cl)(Cl)Cl)cc(=O)c2c1 | 28.3 µM (inactive) | –
COc1cccc(/C=N/Nc2ccc([N+](=O)[O-])cn2)c1O | > 80 µM (inactive) | –
Cc1ccc(-c2nnc(-c3ccc(NC(=O)Cc4cccs4)cc3)o2)cc1 | > 80 µM (inactive) | –
CCC/C(=N/Nc1ccc(Cl)cc1)c1cnnc(-c2ccccc2)n1 | > 80 µM (inactive) | –
O=C(/C=C/c1cc([N+](=O)[O-])ccc1OC(F)F)Nc1cccc([N+](=O)[O-])c1 | > 80 µM (inactive) | –
CCOC(=O)c1nnc(-c2ccccc2)nc1Sc1c(Cl)cccc1Cl | > 80 µM (inactive) | –
Cc1ccccc1OCc1nc(-c2ccc(NC(=O)c3ccc4c(c3)OCO4)cc2)no1 | > 80 µM (inactive) | –
Cc1cc(C)nc(SCc2ccc(C(=O)N/N=C/c3cccc(O)c3O)cc2)n1 | > 80 µM (inactive) | –
CC(=O)c1cccc(N=Cc2c(O)c3ccccc3oc2=O)c1 | > 80 µM (inactive) | –
N#Cc1cc2c(nc1SCC(=O)Nc1sc3c(c1C#N)CCC3)CCCC2 | > 80 µM (inactive) | –
CN(C)CC(CCC(CN(C)C)C(O)(c1ccccc1)c1ccccc1)C(O)(c1ccccc1)c1ccccc1 (stereo not drawn) | > 80 µM (inactive) | –

SMILES | EC50 | pEC50
Cc1nc(Nc2nc(-c3ccccc3)cc(=O)[nH]2)nc2ccccc12 | – | 4.92
CCN(CC)S(=O)(=O)c1ccc(N/N=C(\C)c2ccc3c(c2)OCO3)c([N+](=O)[O-])c1 | 22.1 µM (inactive) | –
O=CC1=C(c2ccccc2)Oc2ccccc2O1 | > 80 µM (inactive) | –
CCOC(=O)C1=C(C)n2c(s/c(=C/c3cccc([N+](=O)[O-])c3)c2=O)=NC1c1ccc(O)c(OC)c1 (stereo not drawn) | > 80 µM (inactive) | –
COc1ccc(C(CCNC(C)c2ccccc2)c2ccc(F)cc2)cc1 (stereo not drawn) | > 80 µM (inactive) | –
CN(c1ccccc1)S(=O)(=O)c1cccc(C(=O)NCCc2ccc(O)c(O)c2)c1 | 32.2 µM (inactive) | –
CCC[C@@H](CN[C@@H](CNC)[C@H](C)CC)NCC1CCC(C(C)(C)C)CC1 (stereo partly drawn) | > 80 µM (inactive) | –
O=C(Nc1ccc([N+](=O)[O-])cc1)C(Cc1ccccc1)N1C(=O)c2cccc3cccc(c23)C1=O (stereo not drawn) | 27 µM (inactive) | –
COc1ccc(OC)c(-c2nnc3n2N=C(c2ccc(OC)c(OC)c2)CS3)c1 | > 80 µM (inactive) | –
Cc1c(CCOC(=O)C23CC4(C)CC(C)(CC(C)(C4)C2)C3)sc[n+]1CC(=O)c1ccccc1 | > 80 µM (inactive) | –
COc1ccc(C2NCCc3c2[nH]c2ccccc32)cc1COc1ccc(F)cc1 (stereo not drawn) | > 80 µM (inactive) | –
CC1=CC(C)(C)N2C(=O)C(=O)c3cc(OC(=O)c4ccco4)cc1c32 | 53.1 µM (inactive) | –
CCOC(=O)c1sc(NC(=S)NC(=O)c2ccccc2)c(C(=O)OCC)c1C | > 80 µM (inactive) | –
COc1ccc(NC(=O)C(=O)N/N=C\c2ccc(CNC(=O)C(=O)Nc3ccc(C)c(C)c3)o2)c(OC)c1 | > 80 µM (inactive) | –
Cc1ccc(N2CCN(c3ccc(NCc4nc5ccccc5n4C)cc3)CC2)cc1 | > 80 µM (inactive) | –
COc1ccc(Br)cc1-c1nc2c(c(=O)[nH]c(=O)n2Cc2ccccc2)n1C | 63.1 µM (inactive) | –
Cc1cc(C)c2c(n1)sc1c(-c3ccccc3)c(C#N)c(N)nc12 | > 80 µM (inactive) | –
Cc1ccc(NC(=O)Cn2c(/C=C/c3ccccc3)nc3ccccc32)cc1C | > 80 µM (inactive) | –
CN(C)CCCN(C(=O)c1cc(-c2cccs2)nc2ccccc12)c1nc2ccc(F)cc2s1 | > 80 µM (inactive) | –
COc1ccc(N2CCN(Cc3cc(=O)oc4cc(-c5ccccc5)c(O)cc34)CC2)cc1 | > 80 µM (inactive) | –
Cc1cc(C)c2c(c1)/C(=N/Nc1ccc(S(N)(=O)=O)cc1[N+](=O)[O-])CCC2 | > 80 µM (inactive) | –
CCOC(=O)c1[nH]c2ccc(Cl)cc2c1NC(=O)/C=C/c1ccc2c(c1)OCO2 | 74.2 µM (inactive) | –

SMILES | EC50 | pEC50
COc1ccc(/C=N/Nc2cc(C)nc3ccc(Br)cc23)cc1 | > 80 µM (inactive) | –
CCCc1nc2ccccc2c(=O)n1/N=C/c1ccc(O)c(O)c1 | > 80 µM (inactive) | –
CCCC[C@@H](C)C[C@@H](C)C(=O)N(C)[C@@H](CC(C)C)C(=O)N[C@H](C(=O)N(C)[C@H](C(=O)N1C[C@@H](O)C[C@H]1C(=O)N1C(=O)C=C[C@@H]1C)C(C)C)C(C)OC(C)=O (stereo partly drawn) | – | 4.87
Cc1ccc2nc(Nc3nc(-c4ccccc4)cc(=O)[nH]3)nc(C)c2c1 | – | 4.71
Cc1ccc(-c2nn(CC(=O)NCc3cc(-c4nn(C)c(=O)c5ccccc45)ccc3C)c(=O)c3ccccc23)cc1 | > 80 µM (inactive) | –
COc1ccc2c(c1)[nH]c1c(=O)n(/N=C/C3C(C)C=C(C)CC3C)c(=O)[nH]c12 (stereo not drawn) | 65.8 µM (inactive) | –
CCCOC(=O)c1cccc(Nc2nc(-c3cccnc3)nc3ccccc23)c1 | > 80 µM (inactive) | –
Cc1ccc(NC(=O)c2cc(S(=O)(=O)N(C)C)ccc2N2CCCC2)cc1S(=O)(=O)N(C)C | 32.1 µM (inactive) | –
C[C@H]1[C@H](C)CC[C@]2(C(=O)O)CC[C@]3(C)C(=CC[C@@H]4[C@@]5(C)C[C@@H](O)[C@H](O)C(C)(C)[C@@H]5CC[C@]43C)[C@H]12 | > 80 µM (inactive) | –
CC1(C)C[C@H](O)[C@]2(CO)[C@H](O)C[C@]3(C)C(=CCC4[C@@]5(C)CC[C@H](O)C(C)(C)C5CC[C@]43C)[C@@H]2C1 (stereo partly drawn) | – | 4.74
O=C(Nc1ccc(NC(=O)c2sc3ccccc3c2Cl)cc1Cl)c1ccco1 | 22 µM (inactive) | –
COc1ccc(-n2c(C)cc(C(=O)CCl)c2C)cc1 | > 80 µM (inactive) | –
COc1ccc(OC)c(NC(=O)c2oc3ccccc3c2NC(=O)C2CC2)c1 | > 80 µM (inactive) | –
CCOc1ccc(NC(=O)C(Cc2ccccc2)N2C(=O)c3cccc4cccc(c34)C2=O)cc1 (stereo not drawn) | > 80 µM (inactive) | –
Cc1sc(NC(=O)c2cc(-c3ccc(Cl)cc3)nc3ccccc23)c(C(N)=O)c1C | 23.9 µM (inactive) | –
CCOC(=O)c1nnc(-c2ccccc2)nc1Oc1ccc(Cl)cc1 | > 80 µM (inactive) | –
COc1ccc2cc3c(N)nn(C(=O)C4CCC(C(C)(C)C)CC4)c3nc2c1 (stereo not drawn) | > 80 µM (inactive) | –
CCOc1cc2c3c(c1)C(C)=CC(C)(C)N3C(=O)C2=O | 54.6 µM (inactive) | –
CCCn1c(SCc2nc3sc(C)c(C)c3c(=O)[nH]2)nc2ccccc2c1=O | 72 µM (inactive) | –
Brc1ccc(C2=Nn3c(nnc3-c3n[nH]c4c3CCC4)SC2)cc1 | 28.3 µM (inactive) | –
Clc1ccc(C2=Nn3c(nnc3-c3cc(-c4ccccc4)n[nH]3)SC2)cc1 | > 80 µM (inactive) | –
COc1ccc(-c2nnc(SCC(=O)Nc3sc4c(c3C#N)CCCC4)n2-c2ccccc2)cc1 | > 80 µM (inactive) | –

— PubChem BioAssay AID489032 (Sanford-Burnham Center for Chemical Genomics, 2010)
